From PMC6199744, “Development of Chemical Proteomics for the Folateome and Analysis of the Kinetoplastid Folateome” (ACS Infectious Diseases, 2018)
Like-named read-outs stand apart in the source and are kept apart here.

Experiments:
Type in all cases: binding
[1] = target: T1, HeLa cell extract proteins (Homo sapiens, UniProt P00966)
T1 construct: endogenous in cells; host or cells: HeLa cell extract
T1 sequence (P00966 1-412): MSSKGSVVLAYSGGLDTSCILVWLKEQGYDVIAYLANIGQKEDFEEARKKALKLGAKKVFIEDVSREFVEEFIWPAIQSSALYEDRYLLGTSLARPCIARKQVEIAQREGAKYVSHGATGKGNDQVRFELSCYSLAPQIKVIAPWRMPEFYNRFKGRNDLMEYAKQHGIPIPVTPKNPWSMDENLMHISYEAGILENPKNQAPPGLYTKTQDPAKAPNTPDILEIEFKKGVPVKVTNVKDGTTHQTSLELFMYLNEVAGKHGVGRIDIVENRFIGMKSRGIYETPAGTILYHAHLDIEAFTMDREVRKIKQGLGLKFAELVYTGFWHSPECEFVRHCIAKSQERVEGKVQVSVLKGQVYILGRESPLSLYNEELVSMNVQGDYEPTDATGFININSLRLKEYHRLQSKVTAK

[2] = target: T2, HeLa cell extract proteins (Homo sapiens, UniProt P05023)
T2 construct: endogenous in cells; host or cells: HeLa cell extract

[3] = target: T3, HeLa cell extract proteins (Homo sapiens, UniProt P07737)
T3 construct: endogenous in cells; host or cells: HeLa cell extract

[4] = target: T4, HeLa cell extract proteins (Homo sapiens, UniProt P13995)
T4 construct: endogenous in cells; host or cells: HeLa cell extract
T4 sequence (P13995 36-350): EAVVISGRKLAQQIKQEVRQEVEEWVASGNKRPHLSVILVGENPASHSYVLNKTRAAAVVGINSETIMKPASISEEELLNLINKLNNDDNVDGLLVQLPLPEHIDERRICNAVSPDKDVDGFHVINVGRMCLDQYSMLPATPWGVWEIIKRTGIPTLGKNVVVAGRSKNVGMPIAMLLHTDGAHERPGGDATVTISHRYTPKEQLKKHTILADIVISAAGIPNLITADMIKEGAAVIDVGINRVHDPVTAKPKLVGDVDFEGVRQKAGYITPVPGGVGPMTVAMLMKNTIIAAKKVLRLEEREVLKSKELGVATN

[5] = target: T5, HeLa cell extract proteins (Homo sapiens, UniProt P24666)
T5 construct: endogenous in cells; host or cells: HeLa cell extract
T5 sequence (P24666 1-158): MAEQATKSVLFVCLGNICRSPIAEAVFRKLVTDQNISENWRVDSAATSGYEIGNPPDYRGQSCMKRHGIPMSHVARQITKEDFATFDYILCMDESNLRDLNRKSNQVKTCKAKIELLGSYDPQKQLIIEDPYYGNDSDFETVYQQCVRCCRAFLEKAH

[6] = target: T6, HeLa cell extract proteins (Homo sapiens, UniProt P50395)
T6 construct: endogenous in cells; host or cells: HeLa cell extract
T6 sequence (P50395 1-445): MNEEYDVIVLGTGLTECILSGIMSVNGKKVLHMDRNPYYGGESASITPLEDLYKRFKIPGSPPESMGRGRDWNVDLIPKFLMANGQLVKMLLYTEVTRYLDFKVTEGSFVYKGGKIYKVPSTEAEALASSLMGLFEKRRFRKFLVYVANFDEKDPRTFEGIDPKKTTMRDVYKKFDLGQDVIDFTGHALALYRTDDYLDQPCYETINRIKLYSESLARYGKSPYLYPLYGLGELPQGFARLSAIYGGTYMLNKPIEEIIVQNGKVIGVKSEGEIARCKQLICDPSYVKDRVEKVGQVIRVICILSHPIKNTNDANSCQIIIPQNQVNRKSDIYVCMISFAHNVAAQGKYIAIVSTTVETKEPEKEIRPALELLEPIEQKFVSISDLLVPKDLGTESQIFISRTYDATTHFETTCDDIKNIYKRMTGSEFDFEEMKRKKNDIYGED

[7] = target: T7, HeLa cell extract proteins (Homo sapiens, UniProt P52272)
T7 construct: endogenous in cells; host or cells: HeLa cell extract
T7 sequence (P52272 1-730): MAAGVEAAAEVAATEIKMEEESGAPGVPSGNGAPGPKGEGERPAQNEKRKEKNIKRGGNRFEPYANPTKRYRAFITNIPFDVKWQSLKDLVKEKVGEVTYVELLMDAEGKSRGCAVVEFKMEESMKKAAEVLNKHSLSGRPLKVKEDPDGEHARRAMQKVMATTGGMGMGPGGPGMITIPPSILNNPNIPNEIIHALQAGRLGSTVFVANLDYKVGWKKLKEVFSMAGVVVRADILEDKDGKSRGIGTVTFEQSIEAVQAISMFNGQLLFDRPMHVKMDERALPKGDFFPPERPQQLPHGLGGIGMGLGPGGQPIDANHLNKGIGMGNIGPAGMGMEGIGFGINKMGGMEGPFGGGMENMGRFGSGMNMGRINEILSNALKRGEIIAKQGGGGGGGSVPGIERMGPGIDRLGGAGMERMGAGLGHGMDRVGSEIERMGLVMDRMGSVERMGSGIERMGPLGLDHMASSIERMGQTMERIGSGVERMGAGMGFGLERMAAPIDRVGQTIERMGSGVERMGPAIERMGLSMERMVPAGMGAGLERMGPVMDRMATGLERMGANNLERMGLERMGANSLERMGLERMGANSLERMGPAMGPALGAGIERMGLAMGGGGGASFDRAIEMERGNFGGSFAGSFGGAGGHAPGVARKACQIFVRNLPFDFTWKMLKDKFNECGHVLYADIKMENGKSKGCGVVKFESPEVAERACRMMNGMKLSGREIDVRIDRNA

[8] = target: T8, HeLa cell extract proteins (Homo sapiens, UniProt Q14204)
T8 construct: endogenous in cells; host or cells: HeLa cell extract

[9] = target: T9, HeLa cell extract proteins (Homo sapiens, UniProt Q15084)
T9 construct: endogenous in cells; host or cells: HeLa cell extract
T9 sequence (Q15084 20-440): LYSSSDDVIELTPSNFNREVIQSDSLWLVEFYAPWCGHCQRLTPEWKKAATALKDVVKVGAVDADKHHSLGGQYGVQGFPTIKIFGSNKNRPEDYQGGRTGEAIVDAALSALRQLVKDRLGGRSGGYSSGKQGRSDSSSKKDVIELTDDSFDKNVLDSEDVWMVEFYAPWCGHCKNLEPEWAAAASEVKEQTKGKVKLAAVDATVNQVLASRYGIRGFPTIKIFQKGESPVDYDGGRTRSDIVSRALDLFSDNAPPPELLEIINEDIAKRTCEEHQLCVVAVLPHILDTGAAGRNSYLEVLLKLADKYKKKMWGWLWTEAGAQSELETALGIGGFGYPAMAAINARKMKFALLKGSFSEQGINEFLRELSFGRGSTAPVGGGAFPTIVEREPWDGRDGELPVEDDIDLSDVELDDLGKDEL

[10] = HeLa, protein PFN1 (PROFILIN-1.)
[11] = HeLa, protein ASS1 (ARGININOSUCCINATE SYNTHASE.)

T3 sequence (P07737 whole entry): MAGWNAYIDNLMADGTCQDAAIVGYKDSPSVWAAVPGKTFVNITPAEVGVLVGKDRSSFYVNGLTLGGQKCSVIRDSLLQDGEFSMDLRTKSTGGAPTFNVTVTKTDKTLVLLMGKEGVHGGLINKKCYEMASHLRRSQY
T8 sequence (Q14204 whole entry): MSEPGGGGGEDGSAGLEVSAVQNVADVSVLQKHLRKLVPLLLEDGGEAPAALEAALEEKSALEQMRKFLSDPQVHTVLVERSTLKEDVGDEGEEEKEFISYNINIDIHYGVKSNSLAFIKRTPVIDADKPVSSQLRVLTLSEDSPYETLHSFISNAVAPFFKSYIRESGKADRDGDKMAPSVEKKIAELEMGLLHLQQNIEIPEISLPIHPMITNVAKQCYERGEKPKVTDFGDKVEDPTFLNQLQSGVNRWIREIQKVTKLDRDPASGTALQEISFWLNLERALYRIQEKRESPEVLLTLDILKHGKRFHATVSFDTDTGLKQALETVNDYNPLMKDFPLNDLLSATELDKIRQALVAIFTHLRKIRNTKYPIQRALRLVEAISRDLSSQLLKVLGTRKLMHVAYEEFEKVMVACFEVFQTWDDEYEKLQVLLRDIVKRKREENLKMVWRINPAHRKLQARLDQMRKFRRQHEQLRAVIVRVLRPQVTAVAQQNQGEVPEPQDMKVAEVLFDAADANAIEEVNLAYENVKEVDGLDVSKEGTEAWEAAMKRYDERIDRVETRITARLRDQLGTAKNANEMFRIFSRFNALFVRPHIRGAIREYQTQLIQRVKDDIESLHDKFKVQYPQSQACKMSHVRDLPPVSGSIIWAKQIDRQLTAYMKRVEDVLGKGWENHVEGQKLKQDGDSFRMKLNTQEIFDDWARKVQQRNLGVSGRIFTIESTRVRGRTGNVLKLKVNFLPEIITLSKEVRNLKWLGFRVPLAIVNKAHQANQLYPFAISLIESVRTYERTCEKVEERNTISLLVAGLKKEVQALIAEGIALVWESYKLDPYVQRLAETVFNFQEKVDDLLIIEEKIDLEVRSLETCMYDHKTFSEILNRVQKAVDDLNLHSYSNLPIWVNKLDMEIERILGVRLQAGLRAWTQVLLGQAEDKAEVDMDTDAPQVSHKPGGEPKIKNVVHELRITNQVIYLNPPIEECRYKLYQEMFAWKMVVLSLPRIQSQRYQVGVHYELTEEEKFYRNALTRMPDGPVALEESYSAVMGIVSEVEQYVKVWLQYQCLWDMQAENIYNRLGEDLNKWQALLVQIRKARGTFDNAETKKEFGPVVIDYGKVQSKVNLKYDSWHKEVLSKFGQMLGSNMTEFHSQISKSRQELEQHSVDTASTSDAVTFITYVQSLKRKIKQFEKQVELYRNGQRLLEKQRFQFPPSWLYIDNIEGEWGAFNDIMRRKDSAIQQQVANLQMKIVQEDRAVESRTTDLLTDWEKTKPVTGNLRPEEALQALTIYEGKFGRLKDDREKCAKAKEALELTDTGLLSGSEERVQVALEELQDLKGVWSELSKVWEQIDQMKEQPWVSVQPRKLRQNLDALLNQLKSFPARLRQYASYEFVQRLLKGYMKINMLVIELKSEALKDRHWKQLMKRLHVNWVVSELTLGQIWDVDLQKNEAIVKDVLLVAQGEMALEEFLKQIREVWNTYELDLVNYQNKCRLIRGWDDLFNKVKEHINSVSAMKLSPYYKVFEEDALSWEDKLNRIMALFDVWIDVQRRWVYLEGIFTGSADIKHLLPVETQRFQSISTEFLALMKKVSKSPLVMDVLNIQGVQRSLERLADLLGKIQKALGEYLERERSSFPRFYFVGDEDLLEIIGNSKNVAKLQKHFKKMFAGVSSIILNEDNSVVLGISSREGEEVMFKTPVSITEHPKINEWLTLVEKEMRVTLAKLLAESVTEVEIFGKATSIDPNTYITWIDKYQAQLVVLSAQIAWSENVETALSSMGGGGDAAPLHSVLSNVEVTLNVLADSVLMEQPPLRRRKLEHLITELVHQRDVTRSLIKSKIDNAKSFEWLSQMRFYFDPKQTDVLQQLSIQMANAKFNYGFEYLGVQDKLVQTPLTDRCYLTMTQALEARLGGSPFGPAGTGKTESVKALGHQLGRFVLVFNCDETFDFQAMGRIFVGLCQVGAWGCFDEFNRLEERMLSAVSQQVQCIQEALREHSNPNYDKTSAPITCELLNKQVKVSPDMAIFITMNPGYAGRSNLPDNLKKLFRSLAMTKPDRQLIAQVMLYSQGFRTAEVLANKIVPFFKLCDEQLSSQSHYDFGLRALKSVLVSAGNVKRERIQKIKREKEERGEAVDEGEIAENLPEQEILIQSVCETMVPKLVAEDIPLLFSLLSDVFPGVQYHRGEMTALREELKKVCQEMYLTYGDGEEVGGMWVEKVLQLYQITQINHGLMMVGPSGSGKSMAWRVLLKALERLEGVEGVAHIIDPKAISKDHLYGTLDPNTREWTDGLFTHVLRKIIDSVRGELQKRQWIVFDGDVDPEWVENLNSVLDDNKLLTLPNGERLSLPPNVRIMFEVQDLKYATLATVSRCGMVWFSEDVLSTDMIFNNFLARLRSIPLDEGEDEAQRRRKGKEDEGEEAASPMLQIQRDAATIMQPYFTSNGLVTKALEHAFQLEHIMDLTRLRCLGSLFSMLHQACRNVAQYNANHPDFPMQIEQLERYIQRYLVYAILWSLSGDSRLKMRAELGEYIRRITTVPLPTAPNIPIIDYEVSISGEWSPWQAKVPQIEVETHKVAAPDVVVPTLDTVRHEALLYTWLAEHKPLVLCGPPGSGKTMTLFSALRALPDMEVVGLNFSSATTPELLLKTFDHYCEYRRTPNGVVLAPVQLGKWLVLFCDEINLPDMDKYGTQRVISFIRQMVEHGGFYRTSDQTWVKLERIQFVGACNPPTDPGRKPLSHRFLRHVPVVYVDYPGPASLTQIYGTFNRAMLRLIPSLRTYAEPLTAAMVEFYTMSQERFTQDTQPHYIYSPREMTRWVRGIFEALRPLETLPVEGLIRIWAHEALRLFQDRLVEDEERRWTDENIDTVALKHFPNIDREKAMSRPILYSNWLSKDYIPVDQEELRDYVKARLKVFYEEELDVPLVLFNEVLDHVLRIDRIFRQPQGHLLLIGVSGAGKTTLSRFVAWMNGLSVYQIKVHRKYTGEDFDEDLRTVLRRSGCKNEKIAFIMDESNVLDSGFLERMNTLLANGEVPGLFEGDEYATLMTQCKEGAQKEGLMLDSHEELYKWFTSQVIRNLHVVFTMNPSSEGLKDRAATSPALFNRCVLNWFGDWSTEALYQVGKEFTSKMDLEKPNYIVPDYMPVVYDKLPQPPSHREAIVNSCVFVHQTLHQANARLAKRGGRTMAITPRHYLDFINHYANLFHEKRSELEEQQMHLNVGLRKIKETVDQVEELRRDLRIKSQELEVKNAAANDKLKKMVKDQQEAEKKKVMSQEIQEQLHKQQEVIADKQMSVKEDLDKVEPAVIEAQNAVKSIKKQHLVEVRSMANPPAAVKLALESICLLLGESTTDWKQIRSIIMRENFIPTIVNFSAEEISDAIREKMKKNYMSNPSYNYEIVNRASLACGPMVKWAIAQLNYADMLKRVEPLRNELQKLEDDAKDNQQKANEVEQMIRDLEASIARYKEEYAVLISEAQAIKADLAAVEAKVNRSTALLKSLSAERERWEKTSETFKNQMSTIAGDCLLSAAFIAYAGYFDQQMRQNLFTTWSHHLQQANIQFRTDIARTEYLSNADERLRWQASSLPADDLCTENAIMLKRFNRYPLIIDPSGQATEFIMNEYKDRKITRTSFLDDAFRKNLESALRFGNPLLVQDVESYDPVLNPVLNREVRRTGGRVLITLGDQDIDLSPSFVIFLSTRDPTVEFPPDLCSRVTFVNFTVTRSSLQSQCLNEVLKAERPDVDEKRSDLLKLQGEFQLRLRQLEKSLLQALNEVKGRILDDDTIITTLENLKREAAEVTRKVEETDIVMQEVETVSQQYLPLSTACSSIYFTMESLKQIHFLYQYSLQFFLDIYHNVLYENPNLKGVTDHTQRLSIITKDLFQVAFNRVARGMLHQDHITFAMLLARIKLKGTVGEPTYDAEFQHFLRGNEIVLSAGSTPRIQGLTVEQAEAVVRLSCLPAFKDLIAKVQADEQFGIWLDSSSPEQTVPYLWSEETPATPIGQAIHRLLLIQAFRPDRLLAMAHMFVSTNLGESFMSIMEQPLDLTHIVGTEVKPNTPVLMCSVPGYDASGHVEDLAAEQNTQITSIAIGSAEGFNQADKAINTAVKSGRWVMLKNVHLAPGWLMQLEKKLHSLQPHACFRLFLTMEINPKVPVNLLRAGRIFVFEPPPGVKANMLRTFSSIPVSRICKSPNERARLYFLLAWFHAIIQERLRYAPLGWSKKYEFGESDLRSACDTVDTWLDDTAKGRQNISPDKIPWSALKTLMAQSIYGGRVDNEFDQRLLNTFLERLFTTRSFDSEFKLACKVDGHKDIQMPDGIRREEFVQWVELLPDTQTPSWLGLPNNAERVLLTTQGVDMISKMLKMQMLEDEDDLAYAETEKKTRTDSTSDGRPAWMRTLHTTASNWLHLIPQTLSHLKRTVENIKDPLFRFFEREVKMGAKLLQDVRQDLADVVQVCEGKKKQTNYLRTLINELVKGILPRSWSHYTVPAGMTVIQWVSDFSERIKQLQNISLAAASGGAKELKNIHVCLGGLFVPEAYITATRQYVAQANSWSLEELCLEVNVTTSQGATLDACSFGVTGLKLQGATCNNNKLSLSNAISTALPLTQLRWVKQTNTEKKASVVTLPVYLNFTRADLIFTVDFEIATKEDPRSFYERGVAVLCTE

SMILES | fold changes relative to vehicle control ([2]; protein ATP1A1, HeLa) | fold changes relative to vehicle control [3, 10] [fold] | fold changes relative to vehicle control ([4]; protein MTHFD2, HeLa) | fold changes relative to vehicle control ([5]; HeLa, protein ACP1) | fold changes relative to vehicle control ([6]; protein GDI2, HeLa) | fold changes relative to vehicle control ([7]; HeLa, protein HNRNPM) | fold changes relative to vehicle control ([8]; protein DYNC1H1, HeLa) | fold changes relative to vehicle control ([9]; protein PDIA6, HeLa) | fold changes relative to vehicle control ([1]; HeLa, protein ASS1) | fold changes relative to vehicle control ([3]; HeLa, protein PFN1) | fold changes relative to vehicle control ([4]; HeLa, captured protein MTHFD2) | fold changes relative to vehicle control ([5]; protein ACP1, HeLa) | fold changes relative to vehicle control ([7]; HeLa, captured protein HNRNPM) | fold changes relative to vehicle control ([8]; HeLa, captured protein DYNC1H1) | fold changes relative to vehicle control ([9]; HeLa, protein PDIA6) | also measured
Nc1nc2cccc(-c3ccccc3)c2n1Cc1ccc(Cl)c(Cl)c1 [compound 3] | 0.94 | 1.03 | 1.03 | 0.71 | 0.72 | 0.88 | 1.07 | 0.89 | – | – | – | – | – | – | – | fold changes relative to vehicle control ([1]; HeLa, protein ASS1 (ARGININ[…].)): 0.97 fold
CCCCCCOc1ccc(Cc2cnc(N)nc2N)cc1 [compound 1] | 0.73 | 1.64 | 0.09 | 0.77 | 1.06 | 1.09 | 1 | 1.09 | – | – | – | – | – | – | – | fold changes relative to vehicle control [1, 11]: 1.53 fold
NCCCNc1ccc(C(=O)NC(CCC(=O)O)C(=O)O)cc1 (stereo not drawn) [compound 7] | 0.92 | – | – | – | 1.02 | – | – | – | 1.01 | 1.21 | 1.02 | 0.71 | 1.02 | 1.1 | 1 | –
CCCCCCOc1cccc(Cc2cnc(N)nc2N)c1 [compound 2] | 1.25 | 2.32 | 0.95 | 0.98 | 1.81 | 1.21 | 1.03 | 1.75 | – | – | – | – | – | – | – | fold changes relative to vehicle control [1, 11]: 2.2 fold
NCCOCCOCC(=O)Nc1nc2ncc(CNc3ccc(C(=O)NC(CCC(=O)O)C(=O)O)cc3)nc2c(=O)[nH]1 (stereo not drawn) [compound 6] | 1.05 | – | – | – | 1.03 | – | – | – | 1.43 | 1.47 | 1.06 | 1.04 | 1.01 | 1.11 | 1.35 | –
Nc1nc2[nH]cc(CCc3ccc(C(=O)N[C@@H](CCC(=O)O)C(=O)O)cc3)c2c(=O)[nH]1 [PTX, pemetrexed] | – | – | – | – | – | – | – | – | – | – | – | – | – | – | – | fold changes relative to vehicle control [1]: 1.23; fold changes relative to vehicle control [2]: 0.96; fold changes relative to vehicle control [3]: 1.43; fold changes relative to vehicle control [4]: 1.05; fold changes relative to vehicle control [5]: 0.84; fold changes relative to vehicle control [6]: 0.9; fold changes relative to vehicle control [7]: 0.99; fold changes relative to vehicle control [8]: 0.99; fold changes relative to vehicle control [9]: 1.12
Nc1nc2c(c(=O)[nH]1)N(C=O)C(CNc1ccc(C(=O)N[C@@H](CCC(=O)O)C(=O)O)cc1)CN2 (stereo partly drawn) [LEU, leucovorin] | 0.76 | – | – | – | 0.93 | – | – | – | 1.03 | 1.22 | 0.7 | 0.72 | 0.83 | 1.02 | 1.03 | –
